Assays:
Assay type in all cases: in vivo, mouse (C57BL/6J male, 60% HFD DIO)
[1] = Example 1: fasting blood glucose level; settings: semaglutide 10 nmol/kg s.c. Q3D
Source text: (§1) After 5-week-old C57BL/6J male mice were acclimatized for 1 week, the weight of each mouse was weighed, and the mice were randomly divided into a control group and a model group by taking the weight as a main index, where 12 mice in the control group were fed with common feed (CD), and the mice in the remaining model group were fed with 60% high-fat feed (60% HFD) for 10-12 weeks to construct a DIO obesity model, with the average body weight being not less than 40 g. The mice fed with 60% HFD were grabbed and acclimatized with a solvent for 3 days, where the acclimatization with a solvent was performed by oral gavage of 0.5% CMC-Na, twice daily.
(§2) The food intake, the body weight, the body fat ratio, and the insulin level of the mice were respectively measured, followed by fasting blood glucose level, and the mice were randomly grouped according to Table 3 by taking the body weight as an index, and the remaining ungrouped mice were euthanized. After grouping, each group of mice was administered according to Table 3, the day of administration was defined as DO, and the administration volume of each drug was determined based on the results obtained by the calculation of 5 μL/g× mouse body weight (g).
For the combined administration group, the total administration volume was the sum of the administration volumes of two single drugs, and the administration sequence and the administration time were kept consistent at each administration. The mice were continuously fed with high-fat feed during the administration period until the administration was finished. […]
After 20 days of administration, fasting blood glucose level results were measured for each group of animals and are shown in Table 8 below and FIG. 11.

[2] = Example 1: body weight and body weight change rate, combined administration of HTD1801 and empagliflozin in DIO obesity model; settings: semaglutide 10 nmol/kg s.c. Q3D
Source text: as §1, §2
(§3) For the combined administration group, the total administration volume was the sum of the administration volumes of two single drugs, and the administration sequence and the administration time were kept consistent at each administration. The mice were continuously fed with high-fat feed during the administration period until the administration was finished. During administration, 2 food intakes were measured per week (difference in feed weights at an interval of 24 h was measured); each group of mice was weighed once daily; postprandial blood glucose levels were measured weekly; blood was collected from the tail tip on day 6 and day 20, respectively, so as to measure fasting blood glucose levels once (blood was collected after fasting from 8:00 am to […]); on day 25 of administration, the body fat ratio and the lean mass of each group of mice were measured by MRI (the measurement period was kept consistent with that before grouping); after 4 weeks of administration intervention (day 28), each group of mice was fasted for 6 h and subjected to OGTT (0 min, 15 min, 30 min, 60 min, 90 min, 120 min) to detect their blood glucose levels, and meanwhile subjected to blood sampling via submaxillary vein (0 min, 15 min, 30 min, about 30 μL of blood sampled each time), and then the blood plasma was separated for detecting the insulin level by ELISA, where the separated blood plasma was more than 10 μL; the next day (D29) at the end of administration was set as the test endpoint, and the mice were fasted for 6 h in the morning and subjected to fasting blood glucose level measurement; subsequently, the mice were euthanized with CO2, blood was collected from the heart of each mouse for analysis, and each group of mice was dissected; the liver and subcutaneous, epididymal and mesenteric fat was collected, photographed and weighed, respectively.

[3] = Example 1: food intake within 24 h; settings: during administration period, vs model control group
Source text: as §1
as §2, with “(g). […]” for “(g).”

[4] = Example 1: oral glucose tolerance test (OGTT), blood glucose; settings: HTD1801 200 mpk, empagliflozin 10 mpk (reduced after week 2), semaglutide 10 nmol/kg s.c. Q3D
Source text: as §1, §2, §3

[5] = Example 1: lean mass by MRI after 25 days
Source text: as §1, §2, §3
After 25 days of administration, the body weight, the Lean weight and the lean ratio of each animal in groups G1 to G5 were measured and averaged for each group, and the results are shown in Table 7 below, FIG. 9 and FIG. 10.

[6] = day 6, HTD1801 300 mpk, empagliflozin 15 mpk gavage QD
[7] = day 0 (baseline), HTD1801 300 mpk, empagliflozin 15 mpk gavage QD
[8] = day 1, HTD1801 300 mpk, empagliflozin 15 mpk gavage QD
[9] = day 2, HTD1801 300 mpk, empagliflozin 15 mpk gavage QD
[10] = day 3, HTD1801 300 mpk, empagliflozin 15 mpk gavage QD
[11] = day 4, HTD1801 300 mpk, empagliflozin 15 mpk gavage QD
[12] = day 5, HTD1801 300 mpk, empagliflozin 15 mpk gavage QD
[13] = day 7, HTD1801 300 mpk, empagliflozin 15 mpk gavage QD
[14] = day 8, HTD1801 300 mpk, empagliflozin 15 mpk gavage QD
[15] = day 9, HTD1801 300 mpk, empagliflozin 15 mpk gavage QD
[16] = day 10, HTD1801 300 mpk, empagliflozin 15 mpk gavage QD
[17] = day 11, HTD1801 300 mpk, empagliflozin 15 mpk gavage QD
[18] = day 12, HTD1801 300 mpk, empagliflozin 15 mpk gavage QD
[19] = day 13, HTD1801 300 mpk, empagliflozin 15 mpk gavage QD
[20] = day 14, HTD1801 300 mpk, empagliflozin 15 mpk gavage QD
[21] = day 15, HTD1801 200 mpk, empagliflozin 10 mpk (reduced after week 2) gavage QD
[22] = day 16, HTD1801 200 mpk, empagliflozin 10 mpk (reduced after week 2) gavage QD
[23] = day 17, HTD1801 200 mpk, empagliflozin 10 mpk (reduced after week 2) gavage QD
[24] = day 18, HTD1801 200 mpk, empagliflozin 10 mpk (reduced after week 2) gavage QD
[25] = day 19, HTD1801 200 mpk, empagliflozin 10 mpk (reduced after week 2) gavage QD
[26] = day 20, HTD1801 200 mpk, empagliflozin 10 mpk (reduced after week 2) gavage QD
[27] = day 21, HTD1801 200 mpk, empagliflozin 10 mpk (reduced after week 2) gavage QD
[28] = day 22, HTD1801 200 mpk, empagliflozin 10 mpk (reduced after week 2) gavage QD
[29] = day 23, HTD1801 200 mpk, empagliflozin 10 mpk (reduced after week 2) gavage QD
[30] = day 24, HTD1801 200 mpk, empagliflozin 10 mpk (reduced after week 2) gavage QD
[31] = day 25, HTD1801 200 mpk, empagliflozin 10 mpk (reduced after week 2) gavage QD
[32] = day 26, HTD1801 200 mpk, empagliflozin 10 mpk (reduced after week 2) gavage QD
[33] = day 27, HTD1801 200 mpk, empagliflozin 10 mpk (reduced after week 2) gavage QD
[34] = day 28, HTD1801 200 mpk, empagliflozin 10 mpk (reduced after week 2) gavage QD
[35] = mean, after 25 days of administration, HTD1801 200 mpk, empagliflozin 10 mpk in last 2 weeks (300/15 mpk before)

Structure (SMILES): COc1ccc2cc3[n+](cc2c1OC)CCc1cc2c(cc1-3)OCO2.C[C@H](CCC(=O)[O-])[C@H]1CC[C@H]2[C@@H]3[C@@H](O)C[C@@H]4C[C@H](O)CC[C@]4(C)[C@H]3CC[C@]12C [HTD1801, berberine ursodeoxycholate]
- Mean fasting blood glucose level [1, 6]: 7.9 mmol/L
- Mean fasting blood glucose level ([1]; day 20, HTD1801 200 mpk, empagliflozin 10 mpk (reduced after week 2)): 8.4 mmol/L
- body weight change (in words) ([2]; after 14 days, reduced dose: HTD1801 200 mpk, empagliflozin 10 mpk): slight rebound
- Body weight (mean) [2, 7]: 43.6 g
- Body weight change rate [2, 7]: 0.0%
- Body weight (mean) [2, 8]: 42.9 g
- Body weight change rate [2, 8]: −1.6%
- Body weight (mean) [2, 9]: 43.1 g
- Body weight change rate [2, 9]: −1.2%
- Body weight (mean) [2, 10]: 42.3 g
- Body weight change rate [2, 10]: −3.0%
- Body weight (mean) [2, 11]: 42.3 g
- Body weight change rate [2, 11]: −2.9%
- Body weight (mean) [2, 12]: 42.5 g
- Body weight change rate [2, 12]: −2.6%
- Body weight (mean) [2, 6]: 42.0 g
- Body weight change rate [2, 6]: −3.8%
- Body weight (mean) [2, 13]: 41.5 g
- Body weight change rate [2, 13]: −4.9%
- Body weight (mean) [2, 14]: 40.8 g
- Body weight change rate [2, 14]: −6.2%
- Body weight (mean) [2, 15]: 40.7 g
- Body weight change rate [2, 15]: −6.6%
- Body weight (mean) [2, 16]: 40.7 g
- Body weight change rate [2, 16]: −6.5%
- Body weight (mean) [2, 17]: 40.6 g
- Body weight change rate [2, 17]: −6.8%
- Body weight (mean) [2, 18]: 40.8 g
- Body weight change rate [2, 18]: −6.3%
- Body weight (mean) [2, 19]: 40.4 g
- Body weight change rate [2, 19]: −7.1%
- Body weight (mean) [2, 20]: 39.7 g
- Body weight change rate [2, 20]: −8.7%
- Body weight (mean) [2, 21]: 39.5 g
- Body weight change rate [2, 21]: −9.0%
- Body weight (mean) [2, 22]: 39.6 g
- Body weight change rate [2, 22]: −8.8%
- Body weight (mean) [2, 23]: 39.4 g
- Body weight change rate [2, 23]: −9.3%
- Body weight (mean) [2, 24]: 38.9 g
- Body weight change rate [2, 24]: −10.3%
- Body weight (mean) [2, 25]: 38.9 g
- Body weight change rate [2, 25]: −10.3%
- Body weight (mean) [2, 26]: 39.2 g
- Body weight change rate [2, 26]: −8.4%
- Body weight (mean) [2, 27]: 39.5 g
- Body weight change rate [2, 27]: −7.8%
- Body weight (mean) [2, 28]: 39.7 g
- Body weight change rate [2, 28]: −7.2%
- Body weight (mean) [2, 29]: 40.2 g
- Body weight change rate [2, 29]: −6.0%
- Body weight (mean) [2, 30]: 40.5 g
- Body weight change rate [2, 30]: −5.4%
- Body weight (mean) [2, 31]: 40.7 g
- Body weight change rate [2, 31]: −4.8%
- Body weight (mean) [2, 32]: 40.1 g
- Body weight change rate [2, 32]: −6.5%
- Body weight (mean) [2, 33]: 40.2 g
- Body weight change rate [2, 33]: −6.2%
- Body weight (mean) [2, 34]: 39.5 g
- Body weight change rate [2, 34]: −7.9%
- body weight change / weight loss effect (in words) ([2]; within 14 days, HTD1801 300 mpk, empagliflozin 15 mpk gavage QD): continuously decreased over time
- food intake within 24 h (in words) [3]: lower than the food intake for the model control group
- OGTT blood glucose level ([4]; day 28, 0 min): 10.65 mmol/L
- OGTT blood glucose level ([4]; day 28, 15 min): 19.88 mmol/L
- OGTT blood glucose level ([4]; day 28, 30 min): 20.04 mmol/L
- OGTT blood glucose level ([4]; day 28, 60 min): 23.48 mmol/L
- OGTT blood glucose level ([4]; day 28, 90 min): 19.88 mmol/L
- OGTT blood glucose level ([4]; day 28, 120 min (head printed "12 0min")): 22.22 mmol/L
- lean mass (in words) ([5]; after 25 days, relative to model control group G2): increased
- Body weight ([5]; mean, after 25 days of administration (Table 7), HTD1801 200 mpk, empagliflozin 10 mpk in last 2 weeks (300/15 mpk before)): 40.10 g
- Lean (lean mass) [5, 35]: 7.50 g
- Lean ratio [5, 35]: 19.02%
